Results: patent US11891348B2, “Cycloheptylamine derivatives as anti-diabetic agents” (UNITED ARAB EMIRATES UNIVERSITY, priority 2020, dated 2024)
“Also recorded” adds a separate entry of the source. Counter-ions that a name gives are not always drawn.

Tests used:
βTC6 cells = assay: Insulin secretion by βTC6 cells, high range insulin Sandwich ELISA kit; format: cell-based; details: for insulin secretion compared to the basal control: absence of glucose; for insulin secretion compared to basal insulin secretion: presence of 2.8 mM glucose, 10^−15, 10^−12, and 10^−9 M
Procedure: FIG. 2A is a bar graph showing the in vitro effects on insulin secretion of compound 2a at concentrations of 10^−15, 10^−12, and 10^−9 M, compared to control, in both the absence and presence of 2.8 mM glucose. Results are means of triplicates±SEM; * P<0.05, ** P<0.01, *** P<0.001, from relative basal control.
The secretion of insulin by βTC6 cells was measured using the high range insulin Sandwich ELISA kit. The 2.8 mM glucose gave a mild insulin response around 3000 pmol/l and was used in testing the effect of compounds 2a-d. […]

[1] = system: STZ-induced diabetic rats; assay: Fasting blood glucose (FBG) in Streptozotocin (STZ)-induced diabetic rats after oral administration; format: in vivo
Procedure: (§1) FIG. 1A is a bar graph showing in vivo anti-hyperglycemic effect on fasting blood glucose levels over time, ranging from 0 minute to 480 minutes, and at 1440 minutes, in STZ-induced diabetic rats, comparing a dose of 1.0 μM/kg compound 2a with control. Results are means±SEM; n=6 rats; * P<0.05, ** P<0.01, vs. STZ control.
as §1, with “1B” for “1A”, “2b” for “2a”
as §1, with “FIG. 1C” for “FIG. 1A”, “comparing an oral” for “comparing a”, “compound 2c” for “compound 2a”
as §1, with “FIG. 1D is a” for “FIG. 1A is a”, “from 0 minutes to 480” for “from 0 minute to 480”, “μM/kg compound 2d with control.” for “μM/kg compound 2a with control.”
These symptoms indicated the development of diabetes characterized by chronic and persistently elevated plasma glucose levels.
Compound 2a was orally administrated to the treated groups of diabetic rats at a dose of 1.0 μM/kg. Glucose levels in their blood were followed over 8.0 hours. […] Compounds 2b-d were orally administrated to the treated groups of diabetic rats at a dose of 1.0 μM/kg. Blood glucose levels were monitored at 0, 30 minutes, 60 minutes, 2 hours, 4 hours, 6 hours, 8 hours, and then again at 24 hours.

[2] = 10^−15, 10^−12, and 10^−9 M tested

Row | SMILES | insulin secretion compared to the basal control (βTC6 cells; [2]) | melting point [°C] | insulin secretion compared to basal insulin secretion (βTC6 cells) | other results
1 | NC1CCCCCC1 [compound 2a, Cycloheptanamine Hydrochloride] | significantly stimulated |  |  | insulin secretion compared to the basal control (βTC6 cells; concentrations of 10^−15 and 10^−12 M): significantly stimulated; insulin secretion compared to basal insulin secretion (βTC6 cells; Hydrochloride): stimulated insulin secretions significantly; stimulation of insulin production (βTC6 cells; summary statement, glucose condition not given): stimulation of insulin production; duration of significant reduction in blood glucose levels ([1]; 1.0 μM/kg): at least 8 hours; time to significant reduction in blood glucose levels ([1]; 1.0 μM/kg): ≤ 1 h; reduction in blood glucose levels compared to control diabetic rats ([1]; oral dose of 1.0 μM/kg, followed over 8.0 hours, Hydrochloride): significant reduction; also recorded: reductions in blood glucose levels
2 | Nc1ccc(S(=O)(=O)NC(=O)NC2CCCCCC2)cc1 [compound 9d, 4-Amino-N-(cycloheptylcarbamoyl)benzenesulfonamide] | not to a statistically significant degree | 235 to 236 | significant stimulation | 
3 | O=C(NC1CCCCCC1)C(=O)NC1CCCCCC1 [compound 8, N1,N2-dicycloheptyloxalamide] |  | 232 |  | 
4 | c1cc(-c2cc[n+](C3CCCCCC3)cc2)ccn1 (as salt: chloride) [compound 6, 1-cycloheptyl-[4,4′-bipyridin]-1-ium chloride] |  | 102 |  | 
5 | N=C(N)NC1CCCCCC1 [compound 10, 1-Cycloheptylguanidine hydrochloride] | not to a statistically significant degree |  | significant stimulation | 
6 | Nc1nccc(NC(=O)NC2CCCCCC2)n1 [compound 9c, 1-(2′-Aminopyrimidin-4′-yl)-3-cycloheptylurea] | not to a statistically significant degree | 139 to 141 | significant stimulation | 
7 | N=C(N)NC1CCCCCC1 (as salt: hydrochloride) [compound 10, 1-Cycloheptylguanidine hydrochloride] |  | 106 |  | 
8 | O=C(Nc1cc(C(F)(F)F)cc(C(F)(F)F)c1)NC1CCCCCC1 [9a, 1-[3′,5′-Bis(trifluoromethyl)phenyl]-3-cycloheptylurea] |  | 169 to 170 |  | 
9 | Cl.N=C(N)/N=C(\N)NC1CCCCCC1 [compound 11, (E)-Amino[(amino(cycloheptylamino)methylene)amino]methaniminium chloride] | not to a statistically significant degree | 283 | significant stimulation | 
10 | Cc1ccc(S(=O)(=O)NC(=O)NC2CCCCCC2)cc1 [compound 9f, N-(Cycloheptylcarbamoyl)-4-methylbenzenesulfonamide] | not to a statistically significant degree |  | significant stimulation | 
